Reference: ChEMBL document CHEMBL1148103, “Antifungal steroidal glycosides from the patagonian starfish anasteriasminuta: structure-activity correlations” (2002)
The source made the active and inactive calls. The rule behind the calls is not given here.

Each molecule was assayed on Cladosporium cucumerinum (assay: Antifungal activity against Cladosporium cucumerinum at 10 ug/spot after 2 to 3 days by bioautographic assay).
Format: functional
For `CCCCNC(=O)n1c(NC(=O)OC)nc2ccccc21` [BENOMYL], the “inhibition zone (IZ)” value was 20 mm.

These molecules were tested on Cladosporium cucumerinum (assay: Antifungal activity against Cladosporium cucumerinum after 2 to 3 days by bioautographic assay).
Format: functional, organism-based
With `CC(C)CC(=O)C[C@@H](C)[C@H]1CC[C@H]2[C@@H]3C[C@H](O[C@@H]4O[C@H](C)[C@@H](O)[C@H](O[C@@H]5OC[C@@H](O[C@@H]6O[C@H](CO)[C@H](O)[C@H](O)[C@H]6O[C@@H]6O[C@H](C)[C@H](O[C@@H]7O[C@H](CO)[C@H](O)[C@H](O)[C@H]7O)[C@H](O)[C@H]6O)[C@H](O)[C@H]5O[C@@H]5O[C@H](C)[C@@H](O)[C@H](O)[C@H]5O)[C@H]4O)[C@H]4C[C@@H](OS(=O)(=O)O)CC[C@]4(C)C3=CC[C@]12C` the Activity was “Dose-dependent effect”. In the case of `CC(C)CC(=O)C[C@@](C)(O)[C@H]1CC[C@H]2[C@@H]3C[C@H](O[C@@H]4O[C@H](C)[C@@H](O)[C@H](O[C@@H]5OC[C@@H](O)[C@H](O)[C@H]5O[C@@H]5O[C@H](C)[C@@H](O)[C@H](O)[C@H]5O)[C@H]4O)[C@H]4C[C@@H](OS(=O)(=O)O)CC[C@]4(C)C3=CC[C@@]21C`, the Activity is reported as “inactive”. In the case of `CC(C)CC(=O)C[C@@](C)(O)[C@H]1CC[C@H]2[C@@H]3C[C@H](O[C@@H]4O[C@H](C)[C@@H](O)[C@H](O[C@@H]5OC[C@@H](O[C@@H]6O[C@H](CO)[C@H](O)[C@H](O)[C@H]6O[C@@H]6O[C@H](C)[C@H](O[C@@H]7O[C@H](CO)[C@H](O)[C@H](O)[C@H]7O)[C@H](O)[C@H]6O)[C@H](O)[C@H]5O[C@@H]5O[C@H](C)[C@@H](O)[C@H](O)[C@H]5O)[C@H]4O)[C@H]4C[C@@H](OS(=O)(=O)O)CC[C@]4(C)C3=CC[C@@]21C`, the Activity is reported as “Dose-dependent effect”. `CC(=O)[C@H]1CC[C@H]2[C@@H]3C[C@H](O[C@@H]4O[C@H](C)[C@@H](O)[C@H](O[C@@H]5OC[C@@H](O[C@@H]6O[C@H](CO)[C@H](O)[C@H](O)[C@H]6O[C@@H]6O[C@H](C)[C@H](O[C@@H]7O[C@H](CO)[C@H](O)[C@H](O)[C@H]7O)[C@H](O)[C@H]6O)[C@H](O)[C@H]5O[C@@H]5O[C@H](C)[C@@H](O)[C@H](O)[C@H]5O)[C@H]4O)[C@H]4C[C@@H](OS(=O)(=O)O)CC[C@]4(C)C3=CC[C@]12C` was tested, and the Activity was “inactive”. In the case of `CC(C)CC(=O)C[C@@](C)(O)[C@H]1CC[C@H]2[C@@H]3C[C@H](O[C@@H]4O[C@H](C)[C@@H](O)[C@H](O[C@@H]5OC[C@@H](O[C@@H]6O[C@H](CO)[C@H](O)[C@H](O)[C@H]6O[C@@H]6O[C@H](C)[C@H](O)[C@H](O)[C@H]6O)[C@H](O)[C@H]5O[C@@H]5O[C@H](C)[C@@H](O)[C@H](O)[C@H]5O)[C@H]4O)[C@H]4C[C@@H](OS(=O)(=O)O)CC[C@]4(C)C3=CC[C@@]21C`, the Activity is reported as “Dose-dependent effect”.
